# The source made the active and inactive calls. The rule behind the calls is not given here.
# Experiments:
# [1] = biological target: T1, Signal transducer and activator of transcription 3 (Homo sapiens, UniProt P40763); assay: Inhibition of STAT3 in human BXPC-3 cells assessed as inhibition of STAT3 phosphorylation at Ser 727 at 10 nM incubated for 22 to 24 hrs by western blot analysis; type: cell-based; settings: time 22-24 hrs
# [2] = Microsomal stability in dog liver microsomes assessed as half life incubated upto 40 mins in presence of NADPH by LC-MS/MS analysis; type: ADME, Canis lupus familiaris, Microsome
# [3] = biological target: T1, Signal transducer and activator of transcription 3; assay: Inhibition of STAT3 in human BXPC-3 cells assessed as reduction of Cyclin D1 expression at 1 to 30 nM incubated for 22 to 24 hrs by western blot analysis; type: cell-based; settings: dose 1-30 nM, time 22-24 hrs, DDE = dose-dependent effect
# [4] = biological target: T1, Signal transducer and activator of transcription 3; assay: Inhibition of STAT3 in human BXPC-3 cells assessed as inhibition of IL-6 stimulated STAT3 phosphorylation at Tyr 705 at 1 to 30 nM by western blot assay; type: cell-based; settings: dose 1-30 nM, DDE = dose-dependent effect
# [5] = biological target: T1, Signal transducer and activator of transcription 3; assay: Inhibition of STAT3 in human Capan-2 cells assessed as inhibition of STAT3 phosphorylation at Ser 727 at 10 nM incubated for 22 to 24 hrs by western blot analysis; type: cell-based; settings: time 22-24 hrs
# [6] = biological target: Epidermal growth factor receptor (Homo sapiens, UniProt P00533); assay: Inhibition of EGFR (unknown origin)
# Chain of Epidermal growth factor receptor (P00533 whole entry): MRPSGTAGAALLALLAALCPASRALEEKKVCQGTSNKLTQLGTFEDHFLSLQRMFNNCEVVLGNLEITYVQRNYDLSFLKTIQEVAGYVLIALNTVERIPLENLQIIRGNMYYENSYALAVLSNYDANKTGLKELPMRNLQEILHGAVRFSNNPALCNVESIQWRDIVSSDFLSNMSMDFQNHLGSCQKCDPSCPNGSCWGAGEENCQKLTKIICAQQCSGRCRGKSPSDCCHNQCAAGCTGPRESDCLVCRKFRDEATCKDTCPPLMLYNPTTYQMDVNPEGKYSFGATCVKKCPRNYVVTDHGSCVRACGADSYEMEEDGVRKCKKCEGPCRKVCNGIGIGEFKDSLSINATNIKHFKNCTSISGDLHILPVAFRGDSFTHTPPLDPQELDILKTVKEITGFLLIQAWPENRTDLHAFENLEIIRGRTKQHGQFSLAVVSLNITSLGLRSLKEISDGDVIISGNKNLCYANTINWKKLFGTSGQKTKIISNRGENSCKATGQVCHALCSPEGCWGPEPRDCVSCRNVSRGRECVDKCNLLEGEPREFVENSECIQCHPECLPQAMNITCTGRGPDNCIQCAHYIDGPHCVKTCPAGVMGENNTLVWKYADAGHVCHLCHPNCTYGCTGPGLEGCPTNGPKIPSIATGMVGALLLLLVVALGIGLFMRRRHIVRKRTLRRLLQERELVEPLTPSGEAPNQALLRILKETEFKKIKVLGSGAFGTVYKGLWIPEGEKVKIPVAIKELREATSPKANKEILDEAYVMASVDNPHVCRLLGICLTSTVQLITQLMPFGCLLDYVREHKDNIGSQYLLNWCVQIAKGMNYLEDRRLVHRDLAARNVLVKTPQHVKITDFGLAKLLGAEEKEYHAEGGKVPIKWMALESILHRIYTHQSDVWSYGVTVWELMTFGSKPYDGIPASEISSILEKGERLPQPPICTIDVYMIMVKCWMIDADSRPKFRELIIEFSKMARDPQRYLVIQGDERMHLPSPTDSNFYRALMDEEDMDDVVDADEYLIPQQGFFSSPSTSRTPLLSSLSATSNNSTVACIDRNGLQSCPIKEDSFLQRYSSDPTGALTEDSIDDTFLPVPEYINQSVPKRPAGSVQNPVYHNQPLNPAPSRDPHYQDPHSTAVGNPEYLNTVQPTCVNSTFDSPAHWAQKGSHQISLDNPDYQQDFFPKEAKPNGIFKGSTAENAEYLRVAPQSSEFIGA
# [7] = biological target: T1, Signal transducer and activator of transcription 3; assay: Inhibition of STAT3 in human BXPC-3 cells assessed as inhibition of STAT3 phosphorylation at Tyr 705 at 1 to 30 nM incubated for 22 to 24 hrs by western blot analysis; type: cell-based; settings: dose 1-30 nM, time 22-24 hrs, DDE = dose-dependent effect
# [8] = Toxicity in BALB/c mouse xenografted with human BXPC-3 cells assessed as body weight change at 30 mg/kg,po administrated once daily for 8 weeks; type: organism-based; settings: in vivo, 1344 h
# [9] = Microsomal stability in dog liver microsomes assessed as intrinsic clearance incubated upto 40 mins in presence of NADPH by LC-MS/MS analysis; type: ADME, Canis lupus familiaris, Microsome; settings: read-out: CLH
# [10] = Toxicity in BALB/c mouse xenografted with human BXPC-3 cells assessed as effect on heart at 30 mg/kg,po administrated once daily for 8 weeks by H and E staining based microscopic analysis; type: organism-based; settings: in vivo, 1344 h
# [11] = biological target: T1, Signal transducer and activator of transcription 3; assay: Inhibition of STAT3 in human BXPC-3 cells assessed as reduction of c-Myc expression at 30 nM incubated for 4 to 24 hrs by western blot analysis; type: cell-based; settings: time 4-24 hrs, TDE = time-dependent effect
# [12] = Cmax in BALB/c mouse at 1 mg/kg,iv measured upto 24 hrs by LC-MS/MS analysis; type: ADME, organism-based; set-up: dose 1 mg/kg, time < 24 hrs, route iv; settings: in vivo
# [13] = system: CFPAC-1; assay: Inhibition of mitochondrial respiration in human CFPAC-1 cells at 1 to 30 nM incubated for 1 hr by seahorse XF96 flux analyzer; type: functional, cell-based; settings: dose 1-30 nM, DDE = dose-dependent effect
# [14] = system: BXPC-3; assay: Antitumor activity against human BXPC-3 cells xenografted BALB/c mouse model assessed as tumor growth inhibition at 30 mg/kg,po administrated once daily for 8 weeks; type: functional; settings: BXPC-3, 1344 h, read-out: TGI
# [15] = system: Mus musculus; assay: In vivo inhibition of STAT3 in BALB/c mouse xenografted with human BXPC-3 cells assessed as inhibition of STAT3 phosphorylation at Tyr 705 at 10 mg/kg,po administrated once daily for 8 weeks by immunohistochemical analysis; type: functional, organism-based
# [16] = biological target: T1, Signal transducer and activator of transcription 3; assay: Thermal stabilization of STAT3 in human BXPC-3 cells at 10 microM at 42.9 degreeC incubated for 1 hrs by cellular thermal shift assay; type: cell-based
# [17] = system: Mus musculus; assay: In vivo inhibition of STAT3 in BALB/c mouse xenografted with human BXPC-3 cells assessed as inhibition of STAT3 phosphorylation at Ser 727 at 30 mg/kg,po administrated once daily for 8 weeks by immunohistochemical analysis; type: functional, organism-based
# [18] = system: PC-3; assay: Inhibition of colony formation in human PC-3 cells at 1000 nM incubated for 5 to 7 days by crystal violet staining assay; type: functional, cell-based; settings: time 5-7 day
# [19] = Toxicity in BALB/c mouse xenografted with human BXPC-3 cells assessed as effect on spleen at 30 mg/kg,po administrated once daily for 8 weeks by H and E staining based microscopic analysis; type: organism-based; settings: in vivo, 1344 h
# [20] = system: BXPC-3; assay: Inhibition of mitochondrial respiration in human BXPC-3 cells assessed as reduction in basal respiration rate at 1 to 30 nM incubated for 1 hr by seahorse XF96 flux analyzer; type: functional, cell-based; settings: dose 1-30 nM, DDE = dose-dependent effect
# [21] = Clearance at steady state in BALB/c mouse at 1 mg/kg,iv measured upto 24 hrs by LC-MS/MS analysis; type: ADME, organism-based; settings: BALB/c, in vivo
# [22] = system: PC-3; assay: Anti-proliferative activity against human PC-3 cells assessed as cell growth inhibition incubated for 72 hrs by MTS assay; type: functional, cell-based; settings: PC-3, 72 h
# [23] = Microsomal stability in human liver microsomes assessed as half life incubated upto 40 mins in presence of NADPH by LC-MS/MS analysis; type: ADME, Microsome
# [24] = biological target: T1, Signal transducer and activator of transcription 3; assay: Inhibition of STAT3 in human BXPC-3 cells assessed as inhibition of IL-6 stimulated nuclear STAT3 phosphorylation at Tyr 705 at 1 to 30 nM by western blot assay; type: cell-based; settings: dose 1-30 nM
# [25] = Oral bioavailability in BALB/c mouse at 10 mg/kg,po measured upto 24 hrs by LC-MS/MS analysis; type: ADME, organism-based; settings: in vivo
# [26] = Half life in BALB/c mouse at 1 mg/kg,iv measured upto 24 hrs by LC-MS/MS analysis; type: ADME, organism-based; settings: in vivo
# [27] = biological target: T1, Signal transducer and activator of transcription 3; assay: Inhibition of STAT3 in human BXPC-3 cells assessed as inhibition of IL-6 stimulated STAT3 nuclear translocation by immunofluorescent assay; type: cell-based
# [28] = biological target: T1, Signal transducer and activator of transcription 3; assay: Inhibition of STAT3 in human Capan-2 cells assessed as inhibition of STAT3 phosphorylation at Tyr 705 at 30 nM incubated for 4 to 24 hrs by western blot analysis; type: cell-based; settings: time 4-24 hrs, TDE = time-dependent effect
# [29] = biological target: T2, Mitogen-activated protein kinase 13 (Homo sapiens, UniProt O15264); assay: Inhibition of p38delta (unknown origin)
# T2 sequence (O15264 whole entry): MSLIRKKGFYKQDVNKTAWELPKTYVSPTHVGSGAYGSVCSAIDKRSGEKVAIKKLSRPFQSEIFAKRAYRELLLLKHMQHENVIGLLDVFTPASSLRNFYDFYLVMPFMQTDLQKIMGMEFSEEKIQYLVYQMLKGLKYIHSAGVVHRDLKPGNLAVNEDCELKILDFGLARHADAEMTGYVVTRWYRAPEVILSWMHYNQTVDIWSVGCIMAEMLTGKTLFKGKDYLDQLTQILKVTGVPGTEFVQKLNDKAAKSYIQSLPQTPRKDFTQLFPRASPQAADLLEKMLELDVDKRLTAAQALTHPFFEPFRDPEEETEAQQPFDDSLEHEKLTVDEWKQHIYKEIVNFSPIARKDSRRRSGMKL
# [30] = biological target: Cytochrome P450 2C19 (Homo sapiens, UniProt P33261); assay: Inhibition of CYP2C19 in human liver microsomes; type: ADME, Microsome
# Chain of Cytochrome P450 2C19 (P33261 whole entry): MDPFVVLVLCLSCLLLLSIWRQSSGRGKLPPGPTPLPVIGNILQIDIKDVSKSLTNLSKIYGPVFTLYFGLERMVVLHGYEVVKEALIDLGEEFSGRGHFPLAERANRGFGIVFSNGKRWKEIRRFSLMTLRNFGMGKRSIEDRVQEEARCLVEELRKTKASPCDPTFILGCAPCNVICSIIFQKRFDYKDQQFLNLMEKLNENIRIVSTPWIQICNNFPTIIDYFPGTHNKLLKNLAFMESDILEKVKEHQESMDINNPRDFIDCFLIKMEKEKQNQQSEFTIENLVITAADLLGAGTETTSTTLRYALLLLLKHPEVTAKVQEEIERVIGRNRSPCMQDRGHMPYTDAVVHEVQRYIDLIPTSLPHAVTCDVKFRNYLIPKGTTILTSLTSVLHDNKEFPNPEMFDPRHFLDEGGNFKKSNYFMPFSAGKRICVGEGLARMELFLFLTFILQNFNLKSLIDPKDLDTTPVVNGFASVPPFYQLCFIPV
# [31] = Toxicity in BALB/c mouse xenografted with human BXPC-3 cells assessed as effect on liver at 10 mg/kg,po administrated once daily for 8 weeks by H and E staining based microscopic analysis; type: organism-based; settings: in vivo, 1344 h
# T1 sequence (P40763 whole entry): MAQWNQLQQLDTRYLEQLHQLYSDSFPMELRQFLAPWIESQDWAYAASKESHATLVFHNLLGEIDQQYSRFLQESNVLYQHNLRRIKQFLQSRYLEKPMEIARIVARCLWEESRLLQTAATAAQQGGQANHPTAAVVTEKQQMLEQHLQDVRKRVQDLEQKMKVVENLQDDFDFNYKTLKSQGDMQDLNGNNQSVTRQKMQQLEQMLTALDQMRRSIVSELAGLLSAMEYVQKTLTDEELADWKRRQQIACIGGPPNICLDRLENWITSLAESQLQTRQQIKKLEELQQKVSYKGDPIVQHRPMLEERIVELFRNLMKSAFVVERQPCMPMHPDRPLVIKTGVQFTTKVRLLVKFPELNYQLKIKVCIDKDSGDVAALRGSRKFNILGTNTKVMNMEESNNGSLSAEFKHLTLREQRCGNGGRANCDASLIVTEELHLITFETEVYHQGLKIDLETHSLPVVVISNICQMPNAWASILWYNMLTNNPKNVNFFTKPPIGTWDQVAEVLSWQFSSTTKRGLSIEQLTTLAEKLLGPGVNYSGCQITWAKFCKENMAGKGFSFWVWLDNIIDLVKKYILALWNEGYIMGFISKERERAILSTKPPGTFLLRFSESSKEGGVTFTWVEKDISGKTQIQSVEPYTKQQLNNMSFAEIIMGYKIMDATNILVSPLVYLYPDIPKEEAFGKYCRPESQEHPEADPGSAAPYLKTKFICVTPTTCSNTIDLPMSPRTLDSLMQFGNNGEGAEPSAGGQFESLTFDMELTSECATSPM
smiles,measurement,setting,value
COc1ccc(-c2noc(-c3cnc(Oc4ccc5cc(C(=O)N6CCN(Cc7ccc(OCC(F)(F)F)cc7)CC6)n(C)c5c4)cn3)n2)cc1,inhibition,[1],Active
same,half-life,[2],1.25 h
same,inhibition,[3],Dde
same,inhibition,[4],Dde
same,inhibition,[5],Active
same,IC50,[6],> 10 µM
same,inhibition,[7],Dde
same,Activity,[8],Non-Toxic
same,microsomal CLint,[9],18.4 µL/min/mg
same,Activity,[10],Non-Toxic
same,inhibition,[11],Tde
same,Cmax,[12],2570 ng/mL
same,inhibition,[13],Dde
same,inhibition in vivo at 30 mg/kg,[14],74.6%
same,inhibition,[15],Active
same,Activity,[16],Active
same,inhibition,[17],Active
same,inhibition,[18],Active
same,Activity,[19],Non-Toxic
same,inhibition,[20],Dde
same,clearance,[21],1.43 mL/min/kg
same,IC50,[22],> 1 µM
same,half-life,[23],1.26 h
same,inhibition,[24],Active
same,bioavailability,[25],29.1%
same,half-life,[26],10.2 h
same,inhibition,[27],Active
same,inhibition,[28],Tde
same,IC50,[29],> 10 µM
same,IC50,[30],> 50 µM
same,Activity,[31],Non-Toxic
